We go through two compounds from publication PMC4635063 (Cephalalgia : an international journal of headache, 2015).

Assay [1] concerns the target T1, TRPM8 (transient receptor potential channel M8) (Rattus norvegicus, UniProt Q8R455). Briefly: agonist. Type of assay: cell-based.
Assay [2] has as its target T1, TRPM8 (transient receptor potential channel M8). Briefly: aequorin luminescence calcium assay in CHO cells, inhibition of icilin. Type of assay: cell-based.

T1 sequence (Q8R455 whole entry): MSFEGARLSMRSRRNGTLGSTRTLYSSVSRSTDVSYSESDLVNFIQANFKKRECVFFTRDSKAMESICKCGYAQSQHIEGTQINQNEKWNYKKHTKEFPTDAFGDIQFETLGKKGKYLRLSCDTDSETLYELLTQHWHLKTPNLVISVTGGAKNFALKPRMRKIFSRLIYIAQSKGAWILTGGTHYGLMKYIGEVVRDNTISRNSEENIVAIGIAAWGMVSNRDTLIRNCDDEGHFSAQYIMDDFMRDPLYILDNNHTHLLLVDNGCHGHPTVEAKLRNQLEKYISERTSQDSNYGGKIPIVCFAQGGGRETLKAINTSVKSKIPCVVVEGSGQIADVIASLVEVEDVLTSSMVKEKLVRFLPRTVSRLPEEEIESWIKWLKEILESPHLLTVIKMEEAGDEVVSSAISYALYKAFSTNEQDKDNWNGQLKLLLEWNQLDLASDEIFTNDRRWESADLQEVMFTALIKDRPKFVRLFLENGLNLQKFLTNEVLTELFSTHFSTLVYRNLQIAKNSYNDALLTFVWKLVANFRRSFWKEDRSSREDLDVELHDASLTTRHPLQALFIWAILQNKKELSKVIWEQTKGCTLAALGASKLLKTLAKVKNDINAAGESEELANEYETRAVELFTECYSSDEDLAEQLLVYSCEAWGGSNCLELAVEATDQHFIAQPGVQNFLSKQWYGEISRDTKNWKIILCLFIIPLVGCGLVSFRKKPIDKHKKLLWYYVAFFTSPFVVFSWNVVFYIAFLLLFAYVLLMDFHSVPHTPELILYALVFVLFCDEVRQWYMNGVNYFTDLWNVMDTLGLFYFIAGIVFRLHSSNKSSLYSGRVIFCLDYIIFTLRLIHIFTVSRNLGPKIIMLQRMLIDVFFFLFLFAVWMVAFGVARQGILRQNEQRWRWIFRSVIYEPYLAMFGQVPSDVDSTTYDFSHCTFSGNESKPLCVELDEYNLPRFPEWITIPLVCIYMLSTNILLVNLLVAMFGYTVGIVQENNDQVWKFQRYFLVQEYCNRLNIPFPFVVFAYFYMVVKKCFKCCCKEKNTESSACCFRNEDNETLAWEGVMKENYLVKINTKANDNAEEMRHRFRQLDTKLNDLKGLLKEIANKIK

For the compound `O=C1NC(c2cccc([N+](=O)[O-])c2)=CCN1c1ccccc1O` [icilin], the “agonist (1 uM) in aequorin luminescence calcium assay in CHO cells” value in assay [1] was “inhibition of TRPM8 activation by icilin and cold in cultured CHO cells stably transfected with rat TRPM8 channel”.
In general, IC50 refers to the concentration that inhibits the measured activity by half. In the case of AMG1161, the IC50 in assay [2] is 23 ± 0.9 nM.
